The subject of data set [1] is brain-to-blood [^125I]hAβ(1-40) efflux transport across the BBB. Nature of the data set: Brain Efflux Index (BEI) study: elimination of [^125I]hAβ(1-40) after intracerebral microinjection. Format: in vivo. To be noted: for decrease of percentage of [^125I]hAβ(1-40) remaining in ipsilateral cerebrum versus vehicle-treated control: n = 5; for effect on percentage of [^125I]hAβ(1-40) remaining versus vehicle-treated control: single i.p. 1 μg/mouse. How it is done: Control mice were injected i.p. with 100 μL of each vehicle solution. After an indicated time (24, 48, or 72 h), the in vivo brain elimination experiments were performed using the intracerebral microinjection technique. Briefly, mice were anesthetized with an intramuscular injection of xylazine (1.22 mg/kg) and ketamine (125 mg/kg), and placed in a stereotaxic frame (SRS-6; Narishige, Tokyo, Japan) that determines the coordinates of the mouse brain coinciding with the secondary somatosensory cortex 2 (S2) region. A small hole was made 3.8 mm lateral to the bregma, and a fine injection needle fitted to a 5.0 μl microsyringe (Hamilton, Reno, NE, USA) was advanced to a depth of 2.5 mm. The solution of [^125I]hAβ(1-40) was freshly prepared from lyophilized [^125I]hAβ(1-40) immediately before each experiment. Lyophilized [^125I]hAβ(1-40) was solubilized in H2O and then added to an equal volume of 2-fold concentration of extracellular fluid (ECF) buffer (244 mM NaCl, 50 mM NaHCO3, 6 mM KCl, 2.8 mM CaCl2, 2.4 mM MgSO4, 0.8 mM K2HPO4, 20 mM D-glucose, and 20 mM HEPES, pH 7.4). […] The applied solution (0.3 μl) containing [^125I]hAβ(1-40) and [^3H]dextran in an ECF buffer was administered into the S2 region over a period of 30 sec. After microinjection, the microsyringe was left in place for 4 min to minimize any backflow. At 5, 30 or 60 min after microinjection, ipsilateral (left) and contralateral (right) cerebrum and cerebellum were excised and dissolved in 2.0 ml 2 M NaOH at 60°C for 1 h. The ^125I and ^3H radioactivities of the samples were measured in a γ-counter (ART300, Aloka, Tokyo, Japan) for 3 min and a liquid scintillation counter (TRI-CARB2050CA, Packard Instruments, Meriden, CT, USA) for 5 min, respectively. The BEI was defined by Equation (1), and the percentage of substrate remaining in the ipsilateral cerebrum (100-BEI) was determined using Equation (2): [drawing 1] [drawing 2]
The apparent elimination rate constant (kel) was determined from the slope given by fitting a semilogarithmic plot of (100-BEI) versus time, using the nonlinear least-squares regression analysis program MULTI [27].

Data set [2] deals with TM-BBB4 cells. Nature of the data set: In vitro internalization (acid-resistant binding) of [^125I]hAβ(1-40) in TM-BBB4 cells. It is filed as cell-based, mouse. How it is done: The TM-BBB4 cell line, established from transgenic mice harboring the temperature-sensitive SV40 large T-antigen gene, was used in this study. TM-BBB4 cells were cultured at 33°C in Dulbecco's modified Eagle's medium (DMEM; Nissui Pharmaceutical Co., Tokyo, Japan), supplemented with 20 mM NaHCO3, 2 mM L-glutamine, 15 ng/ml endothelial cell growth factor, 100 U/ml benzyl penicillin, […] streptomycin sulfate, and 10% fetal bovine serum (Moregate, Bulimba, Australia) in an atmosphere of 95% air and 5% CO2.
TM-BBB4 cells were seeded on 24-well plates (Becton Dickinson, Bedford, MA, USA) at a density of 1.0 × 10^5 cells/2 cm^2/well and cultured for 24 h. The cells were treated with the indicated concentrations of forskolin and U0126 or vehicle for 24 h, and then internalization of [^125I]hAβ(1-40) into TM-BBB4 cells was examined as previously described. Briefly, the extent of TM-BBB4 cell-[^125I]hAβ(1-40) (0.15 μCi/200 μl in ECF buffer) binding was measured for 3 min at 37°C. After the indicated times, binding was terminated by removing the solution, and the cells were washed three times with 1 ml ice-cold ECF buffer. The cells were then incubated with 1 ml ice-cold acetate-barbital buffer (28 mM CH3COONa, 120 mM NaCl, 20 mM barbital sodium (pH 3.0) and 360 mOsm/kg) for 20 min at 4°C to remove [^125I]hAβ(1-40) bound to the cell surface. After incubation, the buffer was then recovered (acid-soluble fraction) and the cells were subsequently washed three times with ice-cold acetate-barbital buffer.
(§1) Acid-resistant binding represents the amount of internalized [^125I]hAβ(1-40) in the TM-BBB4 cells. The cells were solubilized with 200 μl of 5 M NaOH overnight and neutralized with 200 μl of 5 M HCl. The ^125I radioactivity was measured using a γ-counter (ART310, Aloka, Tokyo, Japan). The protein content of the cultured cells was measured using a DC protein assay kit (Bio-Rad, Hercules, CA, USA) with bovine serum albumin as a standard.

Data set [3] can be described thus: Tolerability in mice: body weight, behavior, residual [^3H]dextran (BBB integrity). Format: in vivo. To be noted: mouse, data not shown.
For data set [4] the following is noted: after i.p. administration; cited from earlier work. The text has this:
Reduction of Aβ in the CNS is considered to be a primary therapeutic target for AD.

Details of data set [5]: method as in PMID 2339131. Conditions: mice receiving over 0.1 μg every other day for 2 weeks; cited from earlier work.
Data set [6] deals with elimination of [^125I]hAβ(1-40) from rat brain. To be noted: cited from earlier work. As for the experimental part: The present study examined the [^125I]hAβ(1-40) elimination from the brain for 60 min, and considerable degradation of injected [^125I]hAβ(1-40) might occur during this period.
Data set [7] relates to TM-BBB4 cells. Nature of the data set: Protein content of TM-BBB4 cells after the uptake (DC protein assay). It is filed as cell-based, mouse. How it is done:
as §1

Several values for one entry are separate records, joined by “and”; a condition that tells them apart may be missing. Equal entries are not always repeated.

On to `C=C1/C(=C\C=C2/CCC[C@]3(C)[C@@H]([C@H](C)CCCC(C)(C)O)CC[C@@H]23)C[C@@H](O)C[C@@H]1O` [1,25(OH)2D3, 1α,25-dihydroxyvitamin D3], for which the “initial percentage of [^125I]hAβ(1-40) remaining in the mouse brain” value in data set [1] (1 μg/mouse i.p., 24 h, not significantly different from vehicle (114%)) was 118%. In data set [1] (mouse, 1 μg/mouse i.p., 24 h, 60 min after microinjection, time-profile experiment (Figure 1A)), the “percentage of [^125I]hAβ(1-40) remaining in brain compared with vehicle-treatment group” value is recorded as “significantly lower”. Further, the “increase of [^125I]hAβ(1-40) elimination rate constant versus vehicle-treated group” value in data set [1] (mouse, 1 μg/mouse i.p., 24 h after injection, p < 0.01) was 1.3 fold and 1.29 fold. Moreover, the “decrease of percentage of [^125I]hAβ(1-40) remaining in ipsilateral cerebrum versus vehicle-treated control” value was found to be 12.9% in data set [1] (mouse, single i.p. 0.2 μg/mouse, 24 h, 60 min after microinjection) and 19.5% in data set [1] (mouse, single i.p. 5 μg/mouse, 24 h, 60 min after microinjection). The “effect on percentage of [^125I]hAβ(1-40) remaining versus vehicle-treated control” value in data set [1] (mouse, 24 h after administration, 60 min after microinjection, n = 4-5 (Figure 2B)) was “significant reduction”; in data set [1] (mouse, 48 h after administration, 60 min after microinjection, n = 4-5), “no significant reduction”; in data set [1] (mouse, 72 h after administration, 60 min after microinjection, n = 4-5) it was “no significant reduction”. For the same compound, the “apparent elimination rate constant (kel) of [^125I]hAβ(1-40) across the BBB” value in data set [1] (mouse, single i.p. dose 1 μg/mouse, 24 h before microinjection, slope of (100-BEI) time profile 5-60 min, mean ± SD, n = 3-5, vehicle group 1.85 × 10^-2) is 0.0238 ± 0.0009 min⁻¹. For the same compound, the “effect on [^125I]hAβ(1-40) internalization by TM-BBB4” value with TM-BBB4 cells [2] (data not shown) was “failed to provide consistent results”. In addition, the “adverse effects during repeated treatment” value in data set [3] (1 μg/day, from day 4) is “reduced body weight and abnormal behavior”. The body weight result in data set [3] (single i.p. dose, up to 72 h after administration) is given as “No significant decrease”. The “time at which plasma concentration reaches a maximum” value in data set [4] was at most 2 h. Further, in data set [4], the “time at which plasma concentration returns to baseline” value is 24 h. Also, the “hypercalcemia (calcium level)” value in data set [5] is reported as “over 12 mg/dL”.

With `N[C@@H](Cc1ccc(O)cc1)C(=O)O` [L-tyrosine], in data set [6], the “inhibition of elimination of [^125I]hAβ(1-40) from rat brain” value is listed as “not significantly inhibited”.

For the compound `N#CC(=C(/N)Sc1ccccc1N)/C(C#N)=C(/N)Sc1ccccc1N` [U0126], in the data set on TM-BBB4 cells [2] (U0126 25 μM with forskolin 10 μM for 24 h, [^125I]hAβ(1-40) 0.4 nM, 3 min, n = 4), the “effect on forskolin-induced enhancement of [^125I]hAβ(1-40) acid-resistant binding” value is recorded as “suppressed”. In addition, in the data set on TM-BBB4 cells [2] (pre-treatment with U0126 alone, 25 μM, 24 h, 3 min uptake, n = 4), the “reduction of acid-resistant binding of [^125I]hAβ(1-40) compared with the control” value came to 11.2%. Further, the “protein content of the cells after the uptake” value with TM-BBB4 cells [7] (24 h treatment (U0126 25 μM, forskolin 10 μM), mean ± SEM, n = 4, control 89.8 ± 6.0) is 72.0 ± 7.0 μg protein/well. For the same compound, the “reduction of protein content of the cells after the uptake” value in the data set with TM-BBB4 cells [7] (U0126 25 μM, 24 h, versus control 89.8 ± 6.0 μg protein/well) is on record as 19.8%.

As to `C=C[C@@]1(C)CC(=O)[C@]2(O)[C@@]3(C)[C@@H](O)CCC(C)(C)[C@@H]3[C@H](O)[C@H](OC(C)=O)[C@@]2(C)O1` [forskolin], the “decrease of percentage of [^125I]hAβ(1-40) remaining in mouse brain versus vehicle-treated group” value worked out at 16.4% in data set [1] (single i.p. 2.3 μg/mouse, 24 h, 60 min after microinjection, n = 4-5) and 16.4% in data set [1] (single i.p. 23 μg/mouse, 24 h, 60 min after microinjection, n = 4-5). Besides, the “effect on acid-resistant binding (internalization) of [^125I]hAβ(1-40) by TM-BBB4 cells” value in the data set on TM-BBB4 cells [2] (pre-treatment 10 μM for 24 h, 0.1% DMSO, [^125I]hAβ(1-40) 0.4 nM, 3 min, 37°C, n = 4) is “significantly increased”.

`C[C@H](/C=C/[C@H](C)C(C)(C)O)[C@H]1CC[C@H]2/C(=C/C=C3C[C@@H](O)C[C@H](O)C3)CCC[C@]12C` [paricalcitol]: in data set [1] (data not shown), the “effect on [^125I]hAβ(1-40) elimination from mouse brain” value is “did not significantly enhance”.

The values above are taken from publication PMC3162579 (Fluids and Barriers of the CNS, 2011).
